system: isolated rat bladder strips; experiment: Inhibition of contractions of isolated rat bladder strips (KCl-enhanced contractile activity); conditions: 0.5 h; isolated Sprague-Dawley rat bladder strips, 15 mM KCl added, 30 min challenge per concentration; read-out: IC50 (concentration required to elicit 50% inhibition of pre-drug contractile activity)
Procedure: The compounds of the examples were tested to determine their ability to inhibit contractions of isolated rat bladder strips. See Foster, C. D. et al. Br. J. Pharmacol. 97:281-291, 1989; and Fujii, K. et al. Br. J. Pharmacol. 99:779-785, 1990. Malmgren, A. et al. J. Urol. 143:828-834, 1990, each of which are incorporated herein by reference in its entirety.
Male Sprague-Dawley rats (150-200 g) were obtained from ACE animal suppliers. Animals were allowed free access to food and water.
Animals were euthanized by CO2 asphyxiation followed by a bilateral thoracotomy. The bladder was removed into warm (37 deg. C.) physiological salt solution (PSS) of the following composition (mM): NaCl, 118.4; KCl, 4.7; CaCl2, 2.5; MgSO4.7H2O, 1.2; NaHCO3, 24.9; KH2PO4, 1.2; glucose, 11.1; EDTA, 0.023; gassed with 95% O2/5% CO2; pH 7.4. The bladder was opened and then cut into strips 1-2 mm in width and 7-10 mm in length. The strips were subsequently suspended in a 10 ml tissue bath under an initial resting tension of 1.5 g. The strips were held in place by two surgical clips one of which was attached to a fixed hook while the other was attached to an isometric force transducer. […] The carbachol was then washed out and the tissue allowed to relax to its resting level of activity. Following a further thirty minute period of recovery an additional 15 mM KCl was introduced into the tissue bath. This increase in KCl concentration results in a large increase in the amplitude of spontaneous contractions (and initiation of contractions in previously quiescent strips) superimposed upon a small increase in basal tone. Following stabilization of this enhanced level of contractile activity, incremental increases in the concentration of test compound or vehicle were introduced into the tissue bath. Contractile activity was measured for each compound or vehicle concentration during the last minute of a thirty minute challenge.
Isometric force developed by the bladder strips was measured using a force transducer and recorded on a polygraph. Contractile activity was assessed by measuring either the average amplitude of the contractions (baseline to peak force) occurring during a one min period or, preferably, by integrating the contractile activity with respect to time (one minute measuring period).
The percentage inhibition of contractile activity evoked by each concentration of a given test compounds was used to generate a concentration-response curve. The concentration of test compound required to elicit 50% inhibition of pre-drug contractile activity (IC50 concentration) was calculated from this concentration-response curve. The maximum percentage inhibition of contractile activity evoked by a test compound was also recorded for concentrations of test compound <- or 30 uM.

First: CC(C)CC(=O)Nc1cc2c3c(c1)c1c(n3CC2)CCCCC1 [Example 14, N-4,5,8,9,10,11-hexahydro-7H-cyclohepta[b]pyrrolo[3,2,1-hi]indol-2-yl-3-methylbutanamide]
Second: CC(C)CC(=O)Nc1cc2c3c(c1)c1c(n3CCC2)CCCC1 [Example 18, N-5,6,8,9,10,11-hexahydro-4H-pyrido[3,2,1-jk]carbazol-2-yl-3-methylbutanamide]
The IC50 of the first is higher: 800 to 1000 nM for the first, 500 to 550 nM for the second. The second is the more potent here.

First: CC(=O)Nc1cc2c3c(c1)c1c(n3CC2)CCCCC1 [Example 11, N-4,5,8,9,10,11-hexahydro-7H-cyclohepta[b]pyrrolo[3,2,1-hi]indol-2-ylacetamide]
Second: CC(=O)Nc1cc2c3c(c1)c1c(n3CCC2)CCCC1 [Example 19, N-5,6,8,9,10,11-hexahydro-4H-pyrido[3,2,1-jk]carbazol-2-ylacetamide]
The IC50 of the first is lower: 650 to 700 nM for the first, 2000 to 3000 nM for the second.

First: CC(C)CC(=O)Nc1cc2c3c(c1)c1c(n3CCC2)CCCCC1 [Example 6, N-5,6,9,10,11,12-hexahydro-4H,8H-cyclohepta[4,5]pyrrolo[3,2,1-ij]quinolin-2-yl-3-methylbutanamide]
Second: CCC(=O)Nc1cc2c3c(c1)c1c(n3CCC2)CCCCC1 [Example 7, N-5,6,9,10,11,12-hexahydro-4H,8H-cyclohepta[4,5]pyrrolo[3,2,1-ij]quinolin-2-ylpropanamide]
The IC50 of the first is lower: 80 to 350 nM for the first, 400 to 550 nM for the second.

`CCCCC(=O)Nc1cc2c3c(c1)c1c(n3CCC2)CCCCC1` [Example 9, N-5,6,9,10,11,12-hexahydro-4H,8H-cyclohepta[4,5]pyrrolo[3,2,1-ij]quinolin-2-ylpentanamide] and `CCCCCC(=O)Nc1cc2c3c(c1)c1c(n3CCC2)CCCCC1` [Example 3, N-5,6,9,10,11,12-hexahydro-4H,8H-cyclohepta[4,5]pyrrolo[3,2,1-ij]quinolin-2-ylhexanamide] cannot be ordered by IC50: 50 to 1000 nM for the first, 400 to 2600 nM for the second.

Compared with `O=C(Cc1ccccc1)Nc1cc2c3c(c1)c1c(n3CC2)CCCCC1` [Example 13, N-4,5,8,9,10,11-hexahydro-7H-cyclohepta[b]pyrrolo[3,2,1-hi]indol-2-yl-2-phenylacetamide], `CCCCC(=O)Nc1cc2c3c(c1)c1c(n3CC2)CCCCC1` [Example 12, N-4,5,8,9,10,11-hexahydro-7H-cyclohepta[b]pyrrolo[3,2,1-hi]indol-2-ylpentanamide] is higher in IC50: 500 to 600 nM for the first, 700 to 1000 nM for the second.

`CC(C)(C)CC(=O)Nc1cc2c3c(c1)c1c(n3CC2)CCCCC1` [Example 10, N-4,5,8,9,10,11-hexahydro-7H-cyclohepta[b]pyrrolo[3,2,1-hi]indol-2-yl-3,3-dimethylbutanamide] and `CC(C)(C)CC(=O)Nc1cc2c3c(c1)c1c(n3CC2)CCCCCC1` [Example 21, 3,3-dimethyl-N-4,5,7,8,9,10,11,12-octahydrocycloocta[b]pyrrolo[3,2,1-hi]indol-2-ylbutanamide] cannot be ordered by IC50: 150 to 350 nM for the first, 160 to 700 nM for the second.

`O=C(CCC1CCCC1)Nc1cc2c3c(c1)c1c(n3CC2)CCCCC1` [Example 15, 3-cyclopentyl-N-4,5,8,9,10,11-hexahydro-7H-cyclohepta[b]pyrrolo[3,2,1-hi]indol-2-ylpropanamide] and `CCCCCC(=O)Nc1cc2c3c(c1)c1c(n3CC2)CCCCCC1` [Example 20, N-4,5,7,8,9,10,11,12-octahydrocycloocta[b]pyrrolo[3,2,1-hi]indol-2-ylhexanamide] cannot be ordered by IC50: 300 to 1200 nM for the first, 80 to 550 nM for the second.

First: CCCCCCC(=O)Nc1cc2c3c(c1)c1c(n3CC2)CCCCCC1 [Example 22, N-4,5,7,8,9,10,11,12-octahydrocycloocta[b]pyrrolo[3,2,1-hi]indol-2-ylheptanamide]
Second: CCCCCC(=O)Nc1cc2c3c(c1)c1c(n3CCC2)CCCC1 [Example 17, N-5,6,8,9,10,11-hexahydro-4H-pyrido[3,2,1-jk]carbazol-2-ylhexanamide]
The IC50 of the first is higher: 800 to 1000 nM for the first, 400 to 800 nM for the second.

`CC(C)(C)CC(=O)Nc1cc2c3c(c1)c1c(n3CCC2)CCCCC1` [Example 1, N-5,6,9,10,11,12-hexahydro-4H,8H-cyclohepta[4,5]pyrrolo[3,2,1-ij]quinolin-2-yl-3,3-dimethylbutanamide] showed an IC50 of 30 to 70 nM.

same assay, conditions: @ 3 μM; isolated rat bladder strips, 15 mM KCl added

In the case of `O=C(Nc1cc2c3c(c1)c1c(n3CCC2)CCCCC1)C1CCCCC1` [Example 8, N-5,6,9,10,11,12-hexahydro-4H,8H-cyclohepta[4,5]pyrrolo[3,2,1-ij]quinolin-2-ylcyclohexanecarboxamide], the “% Enhancement of Contractility @ 3 μM” value is reported as 150-200%.
In the case of `CC(C)(C)CC(=O)Nc1cc2c3c(c1)c1c(n3CCC2)CCCC1` [Example 16, N-5,6,8,9,10,11-hexahydro-4H-pyrido[3,2,1-jk]carbazol-2-yl-3,3-dimethylbutanamide], the “% Enhancement of Contractility @ 3 μM” value is reported as 80-100%.
With `O=C(Nc1cc2c3c(c1)c1c(n3CCC2)CCCCC1)c1cccs1` [Example 5, N-5,6,9,10,11,12-hexahydro-4H,8H-cyclohepta[4,5]pyrrolo[3,2,1-ij]quinolin-2-ylthiophene-2-carboxamide] the “% Enhancement of Contractility @ 3 μM” value was 60-90%.
With `CC(C)(C)C(=O)Nc1cc2c3c(c1)c1c(n3CCC2)CCCCC1` [Example 2, N-5,6,9,10,11,12-hexahydro-4H,8H-cyclohepta[4,5]pyrrolo[3,2,1-ij]quinolin-2-yl-2,2-dimethylpropanamide] the “% Enhancement of Contractility @ 3 μM” value was 20-100%.

same assay, conditions: @ 3 μM; isolated rat bladder strips, 15 mM KCl added; read-out: % Inhibition of Contractility @ 3 μM

Compared with `O=C(CCc1ccccc1)Nc1cc2c3c(c1)c1c(n3CCC2)CCCCC1` [Example 4, N-5,6,9,10,11,12-hexahydro-4H,8H-cyclohepta[4,5]pyrrolo[3,2,1-ij]quinolin-2-yl-3-phenylpropanamide], `CC(C)(C)CC(=O)Nc1cc2c3c(c1)c1c(n3CCC2)C(=O)CCCC1` [Example 23, 3,3-dimethyl-N-(8-oxo-5,6,9,10,11,12-hexahydro-4H,8H-cyclohepta[4,5]pyrrolo[3,2,1-ij]quinolin-2-yl)butanamide] is higher in inhibition at 3 µM: 5 to 20% for the first, 25 to 50% for the second.
